Results as given in ChEMBL document CHEMBL3085634, “Identification of elaiophylin derivatives from the marine-derived actinomycete Streptomyces sp. 7-145 using PCR-based screening” (2013).
≈ marks a conversion by molar mass, not a printed value.

Columns and labels:
Assay type in all cases: functional
Morganella morganii = assay: Antibacterial activity against beta-lactamase producing Morganella morganii ATCC 25830 assessed as growth inhibition after 18 hrs by agar dilution method; settings: ATCC 25830, 18 h
Pseudomonas aeruginosa = assay: Antibacterial activity against beta-lactamase producing Pseudomonas aeruginosa ATCC 27853 assessed as growth inhibition after 18 hrs by agar dilution method; settings: ATCC 27853, 18 h
Klebsiella pneumoniae [1] = assay: Antibacterial activity against New Delhi metallo-beta-lactamase 1 producing Klebsiella pneumoniae ATCC BAA-2146 assessed as growth inhibition after 18 hrs by agar dilution method; settings: ATCC BAA-2146, 18 h
Klebsiella pneumoniae [2] = assay: Antibacterial activity against extended spectrum beta-lactamase producing Klebsiella pneumoniae ATCC 700603 assessed as growth inhibition after 18 hrs by agar dilution method; settings: ATCC 700603, 18 h
Escherichia coli [3] = assay: Antibacterial activity against beta-lactamase producing Escherichia coli 09-20 assessed as growth inhibition after 18 hrs by agar dilution method; settings: 09-20, 18 h
Escherichia coli [4] = assay: Antibacterial activity against extended spectrum beta-lactamase producing Escherichia coli 09-1 assessed as growth inhibition after 18 hrs by agar dilution method; settings: 09-1, 18 h
Micrococcus luteus = assay: Antibacterial activity against apramycin-resistant Micrococcus luteus ATCC 10240 assessed as growth inhibition after 18 hrs by agar dilution method; settings: ATCC 10240, 18 h
Enterococcus faecium [5] = assay: Antibacterial activity against vancomycin-sensitive Enterococcus faecium 09-10 assessed as growth inhibition after 18 hrs by agar dilution method; settings: 09-10, 18 h
Enterococcus faecium [6] = assay: Antibacterial activity against vancomycin-resistant Enterococcus faecium ATCC 700221 assessed as growth inhibition after 18 hrs by agar dilution method; settings: ATCC 700221, 18 h
Enterococcus faecalis [7] = assay: Antibacterial activity against vancomycin-resistant Enterococcus faecalis R6512 assessed as growth inhibition after 18 hrs by agar dilution method; settings: R6512, 18 h
Enterococcus faecalis [8] = assay: Antibacterial activity against vancomycin-resistant Enterococcus faecalis W4138 assessed as growth inhibition after 18 hrs by agar dilution method; settings: W4138, 18 h
Enterococcus faecalis [9] = assay: Antibacterial activity against vancomycin-resistant Enterococcus faecalis ATCC 51299 assessed as growth inhibition after 18 hrs by agar dilution method; settings: ATCC 51299, 18 h
Enterococcus faecalis [10] = assay: Antibacterial activity against vancomycin-sensitive Enterococcus faecalis 09-8 assessed as growth inhibition after 18 hrs by agar dilution method; settings: 09-8, 18 h
Enterococcus faecalis [11] = assay: Antibacterial activity against vancomycin-sensitive Enterococcus faecalis ATCC 29212 assessed as growth inhibition after 18 hrs by agar dilution method; settings: ATCC 29212, 18 h
[12] = test system: Staphylococcus epidermidis; assay: Antibacterial activity against methicillin-resistant Staphylococcus epidermidis 09-3 assessed as growth inhibition after 18 hrs by agar dilution method; settings: 09-3, 18 h
Staphylococcus aureus [13] = assay: Antibacterial activity against thiostrepton-resistant Staphylococcus aureus ATCC 6538P assessed as growth inhibition after 18 hrs by agar dilution method
Staphylococcus aureus [14] = assay: Antibacterial activity against methicillin-resistant Staphylococcus aureus R6101 assessed as growth inhibition after 18 hrs by agar dilution method; settings: R6101, 18 h
Staphylococcus aureus [15] = assay: Antibacterial activity against methicillin-resistant Staphylococcus aureus 09-13 assessed as growth inhibition after 18 hrs by agar dilution method; settings: 09-13, 18 h
Staphylococcus aureus [16] = assay: Antibacterial activity against methicillin-resistant Staphylococcus aureus ATCC 33591 assessed as growth inhibition after 18 hrs by agar dilution method; settings: ATCC 33591, 18 h
Staphylococcus aureus [17] = assay: Antibacterial activity against methicillin-sensitive Staphylococcus aureus 09-6 assessed as growth inhibition after 18 hrs by agar dilution method; settings: 09-6, 18 h
Staphylococcus aureus [18] = assay: Antibacterial activity against methicillin-sensitive Staphylococcus aureus ATCC 29213 assessed as growth inhibition after 18 hrs by agar dilution method; settings: ATCC 29213, 18 h
[19] = test system: Staphylococcus epidermidis; assay: Antibacterial activity against methicillin-sensitive Staphylococcus epidermidis ATCC 12228 assessed as growth inhibition after 18 hrs by agar dilution method; settings: ATCC 12228, 18 h
[20] = test system: Staphylococcus epidermidis; assay: Antibacterial activity against methicillin-sensitive Staphylococcus epidermidis 09-9 assessed as growth inhibition after 18 hrs by agar dilution method; settings: 09-9, 18 h

SMILES	MIC (Morganella morganii)	MIC (Pseudomonas aeruginosa)	MIC (Klebsiella pneumoniae [1])	MIC (Klebsiella pneumoniae [2])	MIC (Escherichia coli [3])	MIC (Escherichia coli [4])	MIC (Micrococcus luteus)	MIC (Enterococcus faecium [5])	MIC (Enterococcus faecium [6])	MIC (Enterococcus faecalis [7])	MIC (Enterococcus faecalis [8])	MIC (Enterococcus faecalis [9])	MIC (Enterococcus faecalis [10])	MIC (Enterococcus faecalis [11])	MIC [12]	MIC (Staphylococcus aureus [13])	MIC (Staphylococcus aureus [14])	MIC (Staphylococcus aureus [15])	MIC (Staphylococcus aureus [16])	MIC [19]	also measured
CC[C@@H]1[C@@H](C)OC([C@@H](C)[C@H](O)[C@H](C)[C@H]2OC(=O)/C=C/C=C/[C@H](C)[C@@H]([C@@H](C)[C@@H](O)[C@H](C)[C@@]3(O)C[C@@H](O[C@H]4C[C@H](O)[C@H](O)[C@H](C)O4)[C@H](CC)[C@@H](C)O3)OC(=O)/C=C/C=C/[C@@H]2C)=C[C@H]1O[C@H]1C[C@H](O)[C@H](O)[C@H](C)O1	> 64 µg/mL	> 64 µg/mL	> 64 µg/mL	> 64 µg/mL	> 64 µg/mL	> 64 µg/mL	2 µg/mL (≈ 1.99 µM)	> 64 µg/mL	4 µg/mL (≈ 3.97 µM)	4 µg/mL (≈ 3.97 µM)	4 µg/mL (≈ 3.97 µM)	2 µg/mL (≈ 1.99 µM)	2 µg/mL (≈ 1.99 µM)	2 µg/mL (≈ 1.99 µM)	> 64 µg/mL	4 µg/mL (≈ 3.97 µM)	> 64 µg/mL	2 µg/mL (≈ 1.99 µM)	2 µg/mL (≈ 1.99 µM)	> 64 µg/mL	MIC (Staphylococcus aureus [17]): 2 µg/mL (≈ 1.99 µM); MIC (Staphylococcus aureus [18]): 2 µg/mL (≈ 1.99 µM)
CC[C@@H]1[C@@H](C)O[C@@](OC)([C@@H](C)[C@H](O)[C@H](C)[C@H]2OC(=O)/C=C/C=C/[C@H](C)[C@@H]([C@@H](C)[C@@H](O)[C@H](C)[C@@]3(OC)C[C@@H](O[C@H]4C[C@H](O)[C@H](O)[C@H](C)O4)[C@H](C)[C@@H](C)O3)OC(=O)/C=C/C=C/[C@@H]2C)C[C@H]1O[C@H]1C[C@H](O)[C@H](O)[C@H](C)O1	> 128 µg/mL	> 128 µg/mL	> 128 µg/mL	> 128 µg/mL	> 128 µg/mL	> 128 µg/mL	128 µg/mL (≈ 123 µM)	64 µg/mL (≈ 61.6 µM)	64 µg/mL (≈ 61.6 µM)	> 128 µg/mL	64 µg/mL (≈ 61.6 µM)	64 µg/mL (≈ 61.6 µM)	64 µg/mL (≈ 61.6 µM)	64 µg/mL (≈ 61.6 µM)	64 µg/mL (≈ 61.6 µM)	> 128 µg/mL	16 µg/mL (≈ 15.4 µM)	32 µg/mL (≈ 30.8 µM)	32 µg/mL (≈ 30.8 µM)	64 µg/mL (≈ 61.6 µM)	MIC (Staphylococcus aureus [17]): 32 µg/mL (≈ 30.8 µM); MIC (Staphylococcus aureus [18]): 32 µg/mL (≈ 30.8 µM)
CN[C@H](CC(C)C)C(=O)N[C@H]1C(=O)N[C@@H](CC(N)=O)C(=O)N[C@H]2C(=O)N[C@H]3C(=O)N[C@H](C(=O)N[C@H](C(=O)O)c4cc(O)cc(O)c4-c4cc3ccc4O)[C@H](O)c3ccc(c(Cl)c3)Oc3cc2cc(c3O[C@@H]2O[C@H](CO)[C@@H](O)[C@H](O)[C@H]2O[C@H]2C[C@](C)(N)[C@H](O)[C@H](C)O2)Oc2ccc(cc2Cl)[C@H]1O [VANCOMYCIN]	–	–	–	–	–	–	–	–	–	> 256 µg/mL	4 µg/mL (≈ 2.76 µM)	4 µg/mL (≈ 2.76 µM)	1 µg/mL (≈ 0.69 µM)	1 µg/mL (≈ 0.69 µM)	–	–	–	–	–	0.5 µg/mL (≈ 0.345 µM)	MIC [20]: 0.5 µg/mL (≈ 0.345 µM)
CC[C@@H]1[C@@H](C)O[C@@](O)([C@@H](C)[C@H](O)[C@H](C)[C@H]2OC(=O)/C=C/C=C/[C@H](C)[C@@H]([C@@H](C)[C@@H](O)[C@H](C)[C@@]3(O)C[C@@H](O[C@H]4C[C@H](O)[C@H](O)[C@H](C)O4)[C@H](C)[C@@H](C)O3)OC(=O)/C=C/C=C/[C@@H]2C)C[C@H]1O[C@H]1C[C@H](O)[C@H](O)[C@H](C)O1	> 64 µg/mL	> 64 µg/mL	> 64 µg/mL	> 64 µg/mL	> 64 µg/mL	> 64 µg/mL	2 µg/mL (≈ 1.98 µM)	> 64 µg/mL	2 µg/mL (≈ 1.98 µM)	2 µg/mL (≈ 1.98 µM)	4 µg/mL (≈ 3.96 µM)	2 µg/mL (≈ 1.98 µM)	16 µg/mL (≈ 15.8 µM)	2 µg/mL (≈ 1.98 µM)	4 µg/mL (≈ 3.96 µM)	2 µg/mL (≈ 1.98 µM)	2 µg/mL (≈ 1.98 µM)	2 µg/mL (≈ 1.98 µM)	2 µg/mL (≈ 1.98 µM)	4 µg/mL (≈ 3.96 µM)	MIC (Staphylococcus aureus [17]): 2 µg/mL (≈ 1.98 µM); MIC (Staphylococcus aureus [18]): 2 µg/mL (≈ 1.98 µM)
